Data taken from patent US20080009418A1, “Selective Inhibitors” (Alchemia LTD., priority 2004, published 2008).

Assays:
Mouse urotensin (mUR2) = target: T1, Mouse urotensin (mUR2) (Mus musculus, UniProt Q8VIH9); assay: Radioligand binding, mouse urotensin mUR2 membranes, FlashPlate, [125I]-Urotensin II; settings: compound at 10 μM; [125I]-Urotensin II, mouse mUR2 membranes
T1 construct: purchased Perkin Elmer Biosignal
T1 sequence (Q8VIH9 1-385): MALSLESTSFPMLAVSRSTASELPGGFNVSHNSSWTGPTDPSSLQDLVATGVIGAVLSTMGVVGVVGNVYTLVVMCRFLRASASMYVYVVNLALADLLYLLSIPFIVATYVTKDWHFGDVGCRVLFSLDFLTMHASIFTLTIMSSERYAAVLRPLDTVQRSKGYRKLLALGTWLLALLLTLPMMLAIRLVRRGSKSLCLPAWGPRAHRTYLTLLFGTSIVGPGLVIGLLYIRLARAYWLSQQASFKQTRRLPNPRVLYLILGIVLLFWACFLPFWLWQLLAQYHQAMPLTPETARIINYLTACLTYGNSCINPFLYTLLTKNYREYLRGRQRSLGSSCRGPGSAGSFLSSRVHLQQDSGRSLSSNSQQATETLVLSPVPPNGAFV
In short: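 Cloned mouse urotensin (mUR2) receptor membranes from Perkin Elmer Biosignal were immobilized in FlashPlate microplates using a proprietary coating. Each well got 19.5 μl buffer, then 0.5 μl of DMSO, reference ligand, or compound. Adding 5 μl of [125I]-Urotensin II, diluted to 5× final concentration in binding buffer, started binding. Plates were sealed with TopSeal-A and incubated 1 hour at room temperature in the dark. Wells were counted for 30 seconds each on a TopCount after a 60-second delay, and percentage inhibition was calculated.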

Human Melanocortin (MC4) = target: T2, Human Melanocortin (MC4) (Homo sapiens, UniProt P32245); assay: Radioligand binding, human melanocortin MC4 membranes, FlashPlate, [125I]-NDP-αMSH; settings: compound at 10 μM, [125I]-NDP-αMSH, human MC4 membranes
T2 construct: purchased Perkin Elmer Biosignal
T2 sequence (P32245 whole entry): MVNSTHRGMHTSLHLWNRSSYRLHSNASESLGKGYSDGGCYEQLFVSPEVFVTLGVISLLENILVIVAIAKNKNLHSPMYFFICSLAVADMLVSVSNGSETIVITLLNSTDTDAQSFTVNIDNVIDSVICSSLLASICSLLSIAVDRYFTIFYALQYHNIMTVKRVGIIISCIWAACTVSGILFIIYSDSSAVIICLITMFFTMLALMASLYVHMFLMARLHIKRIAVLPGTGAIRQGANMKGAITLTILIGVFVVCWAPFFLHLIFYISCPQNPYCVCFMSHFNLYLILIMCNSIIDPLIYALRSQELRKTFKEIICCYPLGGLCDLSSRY
In short: (§1)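 Cloned human receptor membranes were coated onto FlashPlate wells and incubated with radioligand and compound (added from a 0.5 mM DMSO daughter plate) for 1 hour at room temperature in the dark. Scintillation counting gave percent inhibition, with DMSO defining total and reference ligand defining non-specific binding.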

Human κ-Opioid (KOP) = target: T3, Human κ-Opioid (KOP) (Homo sapiens, UniProt P41145); assay: Radioligand binding, human κ-opioid (KOP) membranes, filtration, [3H]-Diprenorphine; settings: compound at 10 μM, [3H]-Diprenorphine, human KOP membranes
T3 construct: purchased Perkin Elmer Biosignal
T3 sequence (P41145 whole entry): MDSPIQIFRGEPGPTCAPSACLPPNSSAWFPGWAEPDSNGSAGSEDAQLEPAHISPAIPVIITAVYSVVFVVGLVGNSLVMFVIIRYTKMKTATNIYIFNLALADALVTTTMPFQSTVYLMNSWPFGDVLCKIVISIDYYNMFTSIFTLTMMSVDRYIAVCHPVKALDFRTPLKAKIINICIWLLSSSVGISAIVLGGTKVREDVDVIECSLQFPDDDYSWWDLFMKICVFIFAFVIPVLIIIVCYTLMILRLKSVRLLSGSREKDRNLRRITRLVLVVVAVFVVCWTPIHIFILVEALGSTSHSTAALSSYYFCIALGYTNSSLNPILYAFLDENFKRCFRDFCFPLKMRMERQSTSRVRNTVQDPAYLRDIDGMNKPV
In short: (§2)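 Percent inhibition of radioligand binding measured on recombinant human membranes: NK1 with [125I]-Substance P, KOP with [3H]-Diprenorphine. Incubation 1 h at room temperature, then harvest onto 0.3% PEI-soaked filters, cold Tris-HCl pH 7.4 washes and scintillation counting; non-specific binding from reference ligand wells.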

[1] = target: T4, Human neuropeptide Y (NPY-Y1) (Homo sapiens, UniProt P25929); assay: Radioligand binding, human neuropeptide Y NPY-Y1 membranes, FlashPlate, [125I]-PYY; settings: compound at 10 μM; [125I]-PYY, human NPY-Y1 membranes
T4 construct: purchased Perkin Elmer Biosignal
T4 sequence (P25929 1-384): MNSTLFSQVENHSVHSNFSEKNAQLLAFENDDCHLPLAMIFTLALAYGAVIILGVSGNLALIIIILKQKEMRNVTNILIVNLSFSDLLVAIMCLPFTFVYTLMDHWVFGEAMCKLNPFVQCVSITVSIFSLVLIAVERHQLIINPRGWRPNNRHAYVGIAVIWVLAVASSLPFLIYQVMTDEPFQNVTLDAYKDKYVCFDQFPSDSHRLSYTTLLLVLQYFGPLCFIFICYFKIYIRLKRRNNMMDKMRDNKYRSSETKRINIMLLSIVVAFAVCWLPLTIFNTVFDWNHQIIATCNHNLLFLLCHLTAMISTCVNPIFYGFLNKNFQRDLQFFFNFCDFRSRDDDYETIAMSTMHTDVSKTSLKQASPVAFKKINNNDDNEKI
In short: as §1

Human Melanocortin (MC3) = target: T5, Human Melanocortin (MC3) (Homo sapiens, UniProt P41968); assay: Radioligand binding, human melanocortin MC3 membranes, FlashPlate, [125I]-NDP-αMSH; settings: compound at 10 μM; [125I]-NDP-αMSH, human MC3 membranes; 10 µM
T5 construct: purchased Perkin Elmer Biosignal
T5 sequence (P41968 whole entry): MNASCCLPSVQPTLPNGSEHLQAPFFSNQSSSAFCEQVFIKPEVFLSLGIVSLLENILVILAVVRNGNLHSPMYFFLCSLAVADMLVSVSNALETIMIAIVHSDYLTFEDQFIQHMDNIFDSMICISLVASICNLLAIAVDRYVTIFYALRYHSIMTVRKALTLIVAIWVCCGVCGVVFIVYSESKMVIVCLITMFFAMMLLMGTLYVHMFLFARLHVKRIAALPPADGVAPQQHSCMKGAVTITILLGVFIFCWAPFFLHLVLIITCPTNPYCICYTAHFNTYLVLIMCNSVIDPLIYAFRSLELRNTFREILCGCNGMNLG
In short: as §1

Human opioid (ORL1) = target: T6, Human opioid (ORL1) (Homo sapiens, UniProt P41146); assay: Radioligand binding, human opioid ORL1 membranes, FlashPlate, [125I]-Nociceptin; settings: compound at 10 μM, [125I]-Nociceptin, human ORL1 membranes
T6 construct: purchased Perkin Elmer Biosignal
T6 sequence (P41146 whole entry): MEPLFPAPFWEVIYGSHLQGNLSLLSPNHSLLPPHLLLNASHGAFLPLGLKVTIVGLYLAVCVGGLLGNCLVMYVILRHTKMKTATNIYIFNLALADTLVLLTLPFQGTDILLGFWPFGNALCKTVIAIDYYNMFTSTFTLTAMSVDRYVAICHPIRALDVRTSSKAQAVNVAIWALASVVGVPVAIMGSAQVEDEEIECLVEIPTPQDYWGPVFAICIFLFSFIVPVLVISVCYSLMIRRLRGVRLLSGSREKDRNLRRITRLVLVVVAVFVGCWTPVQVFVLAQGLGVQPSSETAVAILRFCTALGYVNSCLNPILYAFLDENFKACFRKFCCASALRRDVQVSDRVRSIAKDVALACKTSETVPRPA
In short: as §1

Human μ-opioid (MOP) = target: T7, Human μ-opioid (MOP) (Homo sapiens, UniProt P35372); assay: Radioligand binding, human μ-opioid (MOP) membranes, FlashPlate, [3H]-Naloxone; settings: compound at 10 μM, [3H]-Naloxone, human MOP membranes
T7 construct: purchased Perkin Elmer Biosignal
T7 sequence (P35372 whole entry): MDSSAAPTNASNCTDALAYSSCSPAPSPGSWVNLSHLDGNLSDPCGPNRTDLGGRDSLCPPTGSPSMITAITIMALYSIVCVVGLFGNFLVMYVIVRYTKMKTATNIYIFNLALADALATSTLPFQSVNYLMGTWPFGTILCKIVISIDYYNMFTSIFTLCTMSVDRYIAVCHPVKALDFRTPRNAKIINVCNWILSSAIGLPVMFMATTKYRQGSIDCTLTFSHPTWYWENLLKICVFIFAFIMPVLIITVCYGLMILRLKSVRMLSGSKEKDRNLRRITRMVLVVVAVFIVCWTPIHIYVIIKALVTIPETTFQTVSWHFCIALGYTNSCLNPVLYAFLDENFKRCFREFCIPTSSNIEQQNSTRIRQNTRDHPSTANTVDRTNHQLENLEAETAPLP
In short: as §1

Human neurokinin (NK1) = target: T8, Human neurokinin (NK1) (Homo sapiens, UniProt P25103); assay: Radioligand binding, human neurokinin NK1 membranes, filtration, [125I]-Substance P; settings: compound at 10 μM; [125I]-Substance P, human NK1 membranes
T8 construct: purchased Perkin Elmer Biosignal
T8 sequence (P25103 whole entry): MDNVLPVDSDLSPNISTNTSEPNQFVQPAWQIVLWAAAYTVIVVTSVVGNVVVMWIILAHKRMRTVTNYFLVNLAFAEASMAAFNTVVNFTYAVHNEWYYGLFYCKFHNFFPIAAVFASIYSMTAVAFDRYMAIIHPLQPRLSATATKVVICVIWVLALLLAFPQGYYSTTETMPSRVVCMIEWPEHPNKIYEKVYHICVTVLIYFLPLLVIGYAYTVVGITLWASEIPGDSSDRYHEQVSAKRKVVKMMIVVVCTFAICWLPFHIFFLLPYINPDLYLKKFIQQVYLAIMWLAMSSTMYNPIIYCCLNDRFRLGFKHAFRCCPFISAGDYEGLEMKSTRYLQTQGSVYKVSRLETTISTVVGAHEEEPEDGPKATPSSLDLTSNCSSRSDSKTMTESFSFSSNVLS
In short: as §2

Human melanocortin (MC5) = target: T9, Human melanocortin (MC5) (Homo sapiens, UniProt P33032); assay: Radioligand binding, human melanocortin MC5 membranes, FlashPlate, [125I]-NDP-αMSH; settings: compound at 10 μM, [125I]-NDP-αMSH, human MC5 membranes
T9 construct: purchased Perkin Elmer Biosignal
T9 sequence (P33032 whole entry): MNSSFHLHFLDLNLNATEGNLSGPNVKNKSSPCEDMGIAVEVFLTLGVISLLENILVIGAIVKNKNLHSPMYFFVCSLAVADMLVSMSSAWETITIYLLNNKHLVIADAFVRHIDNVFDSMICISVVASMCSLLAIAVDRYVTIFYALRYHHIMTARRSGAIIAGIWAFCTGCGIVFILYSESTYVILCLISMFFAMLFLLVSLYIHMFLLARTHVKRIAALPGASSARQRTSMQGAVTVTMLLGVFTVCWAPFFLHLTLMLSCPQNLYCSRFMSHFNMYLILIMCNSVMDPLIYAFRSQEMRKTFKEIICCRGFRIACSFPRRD
In short: as §1

Human δ-opioid (DOP) = target: T10, Human δ-opioid (DOP) (Homo sapiens, UniProt P41143); assay: Radioligand binding, human δ-opioid (DOP) membranes, FlashPlate, [3H]-Bremazocine; settings: compound at 10 μM; [3H]-Bremazocine, human DOP membranes
T10 construct: purchased Perkin Elmer Biosignal
T10 sequence (P41143 whole entry): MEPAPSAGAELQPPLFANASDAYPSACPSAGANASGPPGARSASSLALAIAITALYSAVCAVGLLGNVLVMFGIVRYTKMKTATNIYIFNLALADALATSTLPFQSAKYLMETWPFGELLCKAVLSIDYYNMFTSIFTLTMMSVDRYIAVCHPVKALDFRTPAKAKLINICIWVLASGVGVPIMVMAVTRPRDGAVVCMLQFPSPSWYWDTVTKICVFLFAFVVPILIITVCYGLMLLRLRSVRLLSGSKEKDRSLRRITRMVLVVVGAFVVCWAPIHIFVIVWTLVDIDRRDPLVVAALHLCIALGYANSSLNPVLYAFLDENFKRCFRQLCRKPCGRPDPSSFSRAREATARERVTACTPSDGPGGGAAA
In short: as §1

[2] = target: T11, Human melanin-concentrating hormone (MCH1) (Homo sapiens, UniProt Q99705); assay: Radioligand binding, human melanin-concentrating hormone MCH1 membranes, FlashPlate, [125I]-S36057; settings: compound at 10 μM; [125I]-S36057, human MCH1 membranes; 10 µM
T11 construct: purchased Perkin Elmer Biosignal
T11 sequence (Q99705 whole entry): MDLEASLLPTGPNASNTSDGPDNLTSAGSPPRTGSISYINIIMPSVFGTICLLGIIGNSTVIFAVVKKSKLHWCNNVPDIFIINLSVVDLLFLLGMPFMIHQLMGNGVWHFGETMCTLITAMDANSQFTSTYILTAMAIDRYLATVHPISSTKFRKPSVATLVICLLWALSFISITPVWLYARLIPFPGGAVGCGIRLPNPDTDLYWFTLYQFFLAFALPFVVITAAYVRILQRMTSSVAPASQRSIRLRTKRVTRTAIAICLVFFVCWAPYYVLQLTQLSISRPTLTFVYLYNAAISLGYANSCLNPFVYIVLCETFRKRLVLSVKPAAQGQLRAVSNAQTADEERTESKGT
In short: as §1

| SMILES | A11: inhibition of radioligand binding (Mouse urotensin (mUR2)) | A4: inhibition of radioligand binding (Human Melanocortin (MC4); 10 µM) | A2: inhibition of radioligand binding (Human κ-Opioid (KOP); 10 µM) | A9: inhibition of radioligand binding [1] | A3: inhibition of radioligand binding (Human Melanocortin (MC3)) | A10: inhibition of radioligand binding (Human opioid (ORL1); 10 µM) | A7: inhibition of radioligand binding (Human μ-opioid (MOP); 10 µM) | A8: inhibition of radioligand binding (Human neurokinin (NK1)) | A5: inhibition of radioligand binding (Human melanocortin (MC5); 10 µM) | A1: inhibition of radioligand binding (Human δ-opioid (DOP)) | A6: inhibition of radioligand binding [2] | A2: inhibition of radioligand binding (Human κ-Opioid (KOP)) | A10: inhibition of radioligand binding (Human opioid (ORL1)) | A7: inhibition of radioligand binding (Human μ-opioid (MOP)) | A5: inhibition of radioligand binding (Human melanocortin (MC5)) | A4: inhibition of radioligand binding (Human Melanocortin (MC4)) |
| --- | --- | --- | --- | --- | --- | --- | --- | --- | --- | --- | --- | --- | --- | --- | --- | --- |
| NCCC(=O)N[C@H]1C(OCc2ccc3ccccc3c2)O[C@H](COCc2ccccc2)[C@@H](O)[C@@H]1OCc1ccc2ccccc2c1 (stereo partly shown) [compound 445] | − (“−” indicates less than 50% inhibition at 10 μM) | + (“+” indicates greater than 50% inhibition at 10 μM) | + (“+” indicates greater than 50% inhibition at 10 μM) | − (“−” indicates less than 50% inhibition at 10 μM) | + (“+” indicates greater than 50% inhibition at 10 μM) | + (“+” indicates greater than 50% inhibition at 10 μM) | + (“+” indicates greater than 50% inhibition at 10 μM) | + (“+” indicates greater than 50% inhibition at 10 μM) | + (“+” indicates greater than 50% inhibition at 10 μM) | − (“−” indicates less than 50% inhibition at 10 μM) | + (“+” indicates greater than 50% inhibition at 10 μM) |  |  |  |  |  |
| NCCC(=O)N[C@H]1C(OCc2ccc3ccccc3c2)O[C@H](COCc2ccc(Cl)cc2)[C@@H](O)[C@@H]1OCc1ccc2ccccc2c1 (stereo partly shown) [compound 446] | − (“−” indicates less than 50% inhibition at 10 μM) | − (“−” indicates less than 50% inhibition at 10 μM) |  | − (“−” indicates less than 50% inhibition at 10 μM) | − (“−” indicates less than 50% inhibition at 10 μM) |  |  | + (“+” indicates greater than 50% inhibition at 10 μM) |  | − (“−” indicates less than 50% inhibition at 10 μM) | − (“−” indicates less than 50% inhibition at 10 μM) | − (“−” indicates less than 50% inhibition at 10 μM) | − (“−” indicates less than 50% inhibition at 10 μM) | − (“−” indicates less than 50% inhibition at 10 μM) | + (“+” indicates greater than 50% inhibition at 10 μM) |  |
| NCCC(=O)N[C@H]1C(OCc2ccc3ccccc3c2)O[C@H](COCc2ccc(Cl)cc2)[C@@H](O)[C@@H]1OCc1ccc2ccccc2c1 (stereo partly shown) [compound 447] | − (“−” indicates less than 50% inhibition at 10 μM) | + (“+” indicates greater than 50% inhibition at 10 μM) |  | − (“−” indicates less than 50% inhibition at 10 μM) | + (“+” indicates greater than 50% inhibition at 10 μM) |  |  | + (“+” indicates greater than 50% inhibition at 10 μM) |  | − (“−” indicates less than 50% inhibition at 10 μM) | + (“+” indicates greater than 50% inhibition at 10 μM) | − (“−” indicates less than 50% inhibition at 10 μM) | − (“−” indicates less than 50% inhibition at 10 μM) | − (“−” indicates less than 50% inhibition at 10 μM) | + (“+” indicates greater than 50% inhibition at 10 μM) |  |
| NCCC(=O)N[C@H]1C(OCc2ccc3ccccc3c2)O[C@H](COCc2ccc3ccccc3c2)[C@@H](O)[C@@H]1OCc1ccccc1 (stereo partly shown) [compound 448] | − (“−” indicates less than 50% inhibition at 10 μM) |  |  | − (“−” indicates less than 50% inhibition at 10 μM) | − (“−” indicates less than 50% inhibition at 10 μM) | − (“−” indicates less than 50% inhibition at 10 μM) |  | + (“+” indicates greater than 50% inhibition at 10 μM) |  | − (“−” indicates less than 50% inhibition at 10 μM) | − (“−” indicates less than 50% inhibition at 10 μM) | − (“−” indicates less than 50% inhibition at 10 μM) |  | − (“−” indicates less than 50% inhibition at 10 μM) | + (“+” indicates greater than 50% inhibition at 10 μM) | + (“+” indicates greater than 50% inhibition at 10 μM) |
| NCCC(=O)N[C@H]1C(OCc2ccc3ccccc3c2)O[C@H](COCc2ccc3ccccc3c2)[C@@H](O)[C@@H]1OCc1ccccc1 (stereo partly shown) [compound 449] | − (“−” indicates less than 50% inhibition at 10 μM) |  |  | − (“−” indicates less than 50% inhibition at 10 μM) | + (“+” indicates greater than 50% inhibition at 10 μM) | + (“+” indicates greater than 50% inhibition at 10 μM) |  | + (“+” indicates greater than 50% inhibition at 10 μM) |  | − (“−” indicates less than 50% inhibition at 10 μM) | + (“+” indicates greater than 50% inhibition at 10 μM) | − (“−” indicates less than 50% inhibition at 10 μM) |  | − (“−” indicates less than 50% inhibition at 10 μM) | + (“+” indicates greater than 50% inhibition at 10 μM) | + (“+” indicates greater than 50% inhibition at 10 μM) |
